Measured values from patent publication US20150266857A1, “NOVEL 3-INDOL SUBSTITUTED DERIVATIVES, PHARMACEUTICAL COMPOSITIONS AND METHODS FOR USE” (iTeos Therapeutics, priority 2014, published 2015).
pIC50: −log10 of the molar value.

Assays:
[1] = biological target: T1, murine mastocytoma P815 cells overexpressing hTDO2 (Homo sapiens, UniProt P48775); assay: Cellular assay for TDO2 activity, hTDO2-overexpressing P815 cells; type: cell-based; conditions: P815 cells overexpressing hTDO2, overnight incubation, kynurenine in supernatant
T1 construct: expressed in transfected cells; host or cells: murine mastocytoma P815 cells
Procedure: The assay (adapted from Pilotte L et al., Proc Natl Acad Sci USA, 2012, 109(7), 2497-502) was performed in 96-well flat bottom plates seeded with murine mastocytoma P815 cells overexpressing hTDO2 (prepared as described in Pilotte et al., PNAS, 2012, 109(7), 2497-2502), at a concentration of 5×10^4 cells/well in a final volume of 200 μL. To determine TDO or IDO activity, the cells were incubated overnight at 37° C. at 5% CO2 in IMDM (Invitrogen) supplemented with 2% FBS and 2% penicillin/streptomycin in the presence of the compounds of the present invention, at different concentrations. The cells may be obtained from the American Type Cuylture Collecion [ATCC® TIB-64™ or commercially, e.g., from Sigma-Aldrich or Life Technologies.]
The plates were then centrifuged 5 min at 1000 rpm, and 100 μL of the supernatant were collected in a conical plate, 30 uL of TCA 30% were added and a further centrifugated at 3000×g for 10 minutes. 100 μL of the supernatant were collected in a flat bottomed plate and 100 μL of 2% (w/v) 4-(dimethylamino)-benzaldehyde in acetic acid and incubated for 5 min at room temperature. Kynurenine concentrations were determined by measuring the absorbance at 480 nm. A standard curve was made with pure kynurenine. The TDO activity was measured as described above using ten serial concentrations of the compounds of the present invention. Data were fitted using the Prism™ software (GraphPad Software, Inc.) using standard parameters.

[2] = biological target: T2, human glioblastoma A172 cells, naturally expressing hTDO2 (Homo sapiens, UniProt P48775); assay: Cellular assay for TDO2 activity, A172 cells; type: cell-based; conditions: overnight incubation, kynurenine in supernatant
T2 construct: human glioblastoma A172 cells, naturally expressing hTDO2; endogenous in cells; host or cells: human glioblastoma A172 cells (ATCC CRL-1620)
Outline: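 A172 human glioblastoma cells naturally expressing TDO2, seeded at 1.25×10^4 cells/well, were incubated overnight at 37 °C in IMDM with 2% FBS and ten serial compound concentrations. Supernatant kynurenine, after TCA precipitation and Ehrlich's reagent, was read at 480 nm against a kynurenine standard curve; data curve-fitted.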

[3] = biological target: T3, human recombinant TDO2 enzyme (Homo sapiens, UniProt P48775); assay: Assay for TDO2 enzymatic activity determination; type: biochemical; conditions: human recombinant TDO2, L-Trp 1 mM, kynurenine absorbance at 480 nm
T3 construct: made in house
Procedure: To measure the TDO2 activity, the procedure described in Dolusic et al. J. Med. Chem.; 2011, 54, […] was adapted: the reaction mixture contained (final concentrations) potassium phosphate buffer (50 mM, pH 7.5), ascorbic acid (0.25 M), methylene blue (0.125 μM), catalase (40 units/mL, from bovine liver, Sigma), and human recombinant TDO2 enzyme (prepared as described in Dolusic et al. J. Med. Chem.; 2011, 54, 5320-5334; 0.9 μg) without or with the compounds of the present invention at the indicated concentrations (total volume 112.5 μL). The reaction was initiated by the addition of 37.5 μL of L-Trp (final concentration 1 mM) at room temperature. The reaction was conducted at room temperature during one hour and stopped by the addition of 30 μL of 30% (w/v) trichloroacetic acid.
To convert N-formylkynurenine into kynurenine, the reaction mixture was incubated at 65° C. for 30 min. Then 150 μL of the reaction mixture was mixed with 120 μL of 2.5% (w/v) 4-(dimethylamino)-benzaldehyde in acetic acid and incubated for 5 min at room temperature. Kynurenine concentrations were determined by measuring the absorbance at 480 nm. A standard curve was made with pure kynurenine. The TDO activity was measured as described above using ten serial concentrations of the compounds of the present invention. Data were fitted using the Prism™ software (GraphPad Software, Inc.) using standard parameters.

T1 sequence (P48775 whole entry): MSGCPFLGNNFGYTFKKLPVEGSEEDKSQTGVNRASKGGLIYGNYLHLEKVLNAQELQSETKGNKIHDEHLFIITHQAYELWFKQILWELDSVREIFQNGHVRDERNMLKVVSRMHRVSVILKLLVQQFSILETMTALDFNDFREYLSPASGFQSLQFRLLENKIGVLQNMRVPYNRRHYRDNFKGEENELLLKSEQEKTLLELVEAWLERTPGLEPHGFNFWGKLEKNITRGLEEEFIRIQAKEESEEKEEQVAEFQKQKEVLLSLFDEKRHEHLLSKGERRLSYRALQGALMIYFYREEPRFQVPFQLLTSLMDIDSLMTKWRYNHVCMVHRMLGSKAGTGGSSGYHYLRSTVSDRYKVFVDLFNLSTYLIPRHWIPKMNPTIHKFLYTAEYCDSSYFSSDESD
T3 sequence (P48775 whole entry): as above
T2 sequence (P48775 whole entry): as above

Row | pIC50 [1] | pIC50 [2] | pIC50 [3] | SMILES
1 | 6.96 |  |  | Cc1nc2ccc(-c3c[nH]c4cc(F)ccc34)cc2o1 [Compound 54, 6-(6-fluoro-1H-indol-3-yl)-2-methylbenzo[d]oxazole]
2 | 6.68 | 6.47 |  | CN1CCN(Cc2nc3cc(-c4c[nH]c5cc(F)ccc45)ccc3o2)CC1 [Compound 62, 5-(6-fluoro-1H-indol-3-yl)-2-((4-methylpiperazin-1-yl)methyl)benzo[d]oxazole]
3 | 6.23 |  |  | Fc1ccc2c(-c3ccc4[nH]c(CN5CCOCC5)nc4c3)c[nH]c2c1 [Compound 45, 4-((5-(6-fluoro-1H-indol-3-yl)-1H-benzo[d]imidazol-2-yl)methyl)morpholine]
4 | 5.84 |  |  | CN(C)Cc1nc2ccc(-c3c[nH]c4cc(F)ccc34)cc2[nH]1 [Compound 28, 1-(6-(6-fluoro-1H-indol-3-yl)-1H-benzo[d]imidazol-2-yl)-N,N-dimethylmethanamine]
5 | 6.96 | 6.47 |  | O=c1[nH]c2ccc(-c3c[nH]c4cc(F)ccc34)cc2[nH]1 [Compound 65, 5-(6-fluoro-1H-indol-3-yl)-1H-benzo[d]imidazol-2(3H)-one]
6 | 5.95 |  |  | CC(=O)NCCc1nc2ccc(-c3c[nH]c4cc(F)ccc34)cc2[nH]1 [Compound 36, N-(2-(6-(6-fluoro-1H-indol-3-yl)-1H-benzo[d]imidazol-2-yl)ethyl)acetamide]
7 | 7.10 |  |  | Fc1ccc2c(-c3ccc4ncoc4c3)c[nH]c2c1 [Compound 53, 6-(6-fluoro-1H-indol-3-yl)benzo[d]oxazole]
8 | 6.20 |  |  | CN1CCN(Cc2nc3ccc(-c4c[nH]c5cc(F)ccc45)cc3[nH]2)CC1 [Compound 33, 6-(6-fluoro-1H-indol-3-yl)-2-((4-methylpiperazin-1-yl)methyl)-1H-benzo[d]imidazole]
9 | 6.16 |  |  | NCCc1nc2ccc(-c3c[nH]c4cc(F)ccc34)cc2[nH]1 [Compound 35, 2-(6-(6-fluoro-1H-indol-3-yl)-1H-benzo[d]imidazol-2-yl)ethanamine]
10 | 6.17 |  |  | NCc1nc2ccc(-c3c[nH]c4cc(F)ccc34)cc2[nH]1 [Compound 27, (6-(6-fluoro-1H-indol-3-yl)-1H-benzo[d]imidazol-2-yl)methanamine]
11 | 6.61 | 6.58 |  | Fc1ccc2c(-c3ccc4nn(CC5CCNCC5)cc4c3)c[nH]c2c1 [Compound 77, 5-(6-fluoro-1H-indol-3-yl)-2-(piperidin-4-ylmethyl)-2H-indazole]
12 | 7.09 | 6.83 |  | Fc1ccc2c(-c3ccc4nc(CN5CCNCC5)oc4c3)c[nH]c2c1 [Compound 78, 6-(6-fluoro-1H-indol-3-yl)-2-(piperazin-1-ylmethyl)benzo[d]oxazole]
13 | 6.06 |  |  | CS(=O)(=O)N1CCN(Cc2nc3cc(-c4c[nH]c5cc(F)ccc45)ccc3[nH]2)CC1 [Compound 34, 5-(6-fluoro-1H-indol-3-yl)-2-((4-(methylsulfonyl)piperazin-1-yl)methyl)-1H-benzo[d]imidazole]
14 | 6.34 |  |  | CS(=O)(=O)NCc1nc2ccc(-c3c[nH]c4cc(F)ccc34)cc2[nH]1 [Compound 32, N-((6-(6-fluoro-1H-indol-3-yl)-1H-benzo[d]imidazol-2-yl)methyl)methanesulfonamide]
15 |  | 6.48 | 5.92 | O=S(=O)(CCN1CCCC1)NCc1nc2ccc(-c3c[nH]c4cc(F)ccc34)cc2o1 [Compound 124, N-((6-(6-fluoro-1H-indol-3-yl)benzo[d]oxazol-2-yl)methyl)-2-(pyrrolidin-1-yl)ethanesulfonamide]
16 | 5.64 |  |  | NCC(=O)NCc1nc2ccc(-c3c[nH]c4cc(F)ccc34)cc2[nH]1 [Compound 31, 2-amino-N-((6-(6-fluoro-1H-indol-3-yl)-1H-benzo[d]imidazol-2-yl)methyl)acetamide]

Row | pIC50 [1] | pIC50 [2] | pIC50 [3] | SMILES
17 | 5.54 |  |  | Fc1ccc2c(-c3ccc4nc(C5CCNCC5)[nH]c4c3)c[nH]c2c1 [Compound 39, 6-(6-fluoro-1H-indol-3-yl)-2-(piperidin-4-yl)-1H-benzo[d]imidazole]
18 |  | 6.53 | 6.31 | Nc1nc2ccc(-c3c[nH]c4cc(F)ccc34)cc2o1 [Compound 98, 6-(6-fluoro-1H-indol-3-yl)benzo[d]oxazol-2-amine]
19 |  | 6.55 | 6.15 | O=C1Cc2cc(-c3c[nH]c4cc(F)ccc34)ccc2N1 [Compound 97, 5-(6-fluoro-1H-indol-3-yl)indolin-2-one]
20 | 6.21 |  |  | Fc1ccc2c(-c3ccc4nc(CN5CCNCC5)[nH]c4c3)c[nH]c2c1 [Compound 59, 6-(6-fluoro-1H-indol-3-yl)-2-(piperazin-1-ylmethyl)-1H-benzo[d]imidazole]
21 |  | 6.17 | 5.55 | O=S(=O)(CCN1CCOCC1)NCc1nc2ccc(-c3c[nH]c4cc(F)ccc34)cc2o1 [Compound 107, N-((6-(6-fluoro-1H-indol-3-yl)benzo[d]oxazol-2-yl)methyl)-2-morpholinoethanesulfonamide]
22 | 6.12 |  |  | CS(=O)(=O)N1CCC(c2nc3ccc(-c4c[nH]c5cc(F)ccc45)cc3[nH]2)CC1 [Compound 40, 6-(6-fluoro-1H-indol-3-yl)-2-(1-(methylsulfonyl)piperidin-4-yl)-1H-benzo[d]imidazole]
23 |  | 6.83 | 6.19 | NC(=O)Cn1ncc2cc(-c3c[nH]c4cc(F)ccc34)ccc21 [Compound 9, 2-(5-(6-fluoro-1H-indol-3-yl)-1H-indazol-1-yl)acetamide]
24 |  | 6.82 | 5.86 | CS(=O)(=O)CCc1nc2ccc(-c3c[nH]c4cc(F)ccc34)cc2o1 [Compound 101, 6-(6-fluoro-1H-indol-3-yl)-2-(2-(methylsulfonyl)ethyl)benzo[d]oxazole]
25 |  | 6.46 | 5.83 | CN(C)CCS(=O)(=O)NCc1nc2ccc(-c3c[nH]c4cc(F)ccc34)cc2o1 [Compound 100, 2-(dimethylamino)-N-((6-(6-fluoro-1H-indol-3-yl)benzo[d]oxazol-2-yl)methyl)ethanesulfonamide]
26 | 6.46 |  |  | CNCc1nc2cc(-c3c[nH]c4cc(F)ccc34)ccc2[nH]1 [Compound 44, 1-(5-(6-fluoro-1H-indol-3-yl)-1H-benzo[d]imidazol-2-yl)-N-methylmethanamine]
27 | 6.20 |  |  | NC(=O)Cc1nc2ccc(-c3c[nH]c4cc(F)ccc34)cc2[nH]1 [Compound 60, 2-(6-(6-fluoro-1H-indol-3-yl)-1H-benzo[d]imidazol-2-yl)acetamide]
28 | 6.93 |  |  | Cc1nc2cc(-c3c[nH]c4cc(F)ccc34)ccc2o1 [Compound 48, 5-(6-fluoro-1H-indol-3-yl)-2-methylbenzo[d]oxazole]
29 |  | 6.75 | 6.27 | NC(=O)CCn1cc2cc(-c3c[nH]c4cc(F)ccc34)ccc2n1 [Compound 22, 3-(5-(6-fluoro-1H-indol-3-yl)-2H-indazol-2-yl)propanamide]
30 | 5.81 |  |  | CS(=O)(=O)NCCc1nc2ccc(-c3c[nH]c4cc(F)ccc34)cc2[nH]1 [Compound 37, N-(2-(6-(6-fluoro-1H-indol-3-yl)-1H-benzo[d]imidazol-2-yl)ethyl)methanesulfonamide]
31 | 6.05 |  |  | CC(=O)NCc1nc2ccc(-c3c[nH]c4cc(F)ccc34)cc2[nH]1 [Compound 30, N-((6-(6-fluoro-1H-indol-3-yl)-1H-benzo[d]imidazol-2-yl)methyl)acetamide]
32 |  | 7.08 | 5.62 | O=C1NS(=O)(=O)c2ccc(-c3c[nH]c4cc(F)ccc34)cc21 [Compound 130, 5-(6-fluoro-1H-indol-3-yl)benzo[d]isothiazol-3(2H)-one 1,1-dioxide]
